US20260193226A1, “MICROBIOCIDAL TETRAHYDROISOQUINOLINE DERIVATIVES” (SYNGENTA CROP PROTECTION AG, priority 2022, published 2026)

How the values were obtained:
[1] = tested on: Monographella nivalis (Microdochium nivale); test: Monographella nivalis (Microdochium nivale) / liquid culture (foot rot cereals); type: cell-based; details: compared to untreated control
Experimental: Example B8: Monographella nivalis (Microdochium nivale)/Liquid Culture (Foot Rot Cereals) Conidia of the fungus from cryogenic storage are directly mixed into nutrient broth (PDB potato dextrose broth). After placing a (DMSO) solution of test compound into a microtiter plate (96-well format), the nutrient broth containing the fungal spores is added. The test plates are incubated at 24° C. and the inhibition of growth is determined photometrically 4 to 5 days after application.

[2] = tested on: Mycosphaerella arachidis (Cercospora arachidicola); test: Mycosphaerella arachidis (Cercospora arachidicola) / liquid culture (early leaf spot); type: cell-based; details: compared to untreated control
Experimental: Example B9: Mycosphaerella arachidis (Cercospora arachidicola)/Liquid Culture (Early Leaf Spot) Conidia of the fungus from cryogenic storage are directly mixed into nutrient broth (PDB potato dextrose broth). After placing a (DMSO) solution of test compound into a microtiter plate (96-well format), the nutrient broth containing the fungal spores is added. The test plates are incubated at 24° C. and the inhibition of growth is determined photometrically 4 to 5 days after application.

[3] = tested on: Alternaria solani; test: Alternaria solani / tomato / leaf disc (early blight); type: in vivo; details: foliar, compared to untreated control
Experimental: Example B1: Alternaria solani/Tomato/Leaf Disc (Early Blight) Tomato leaf disks cv. Baby are placed on agar in multiwell plates (24-well format) and sprayed with the formulated test compound diluted in water. The leaf disks are inoculated with a spore suspension of the fungus 2 days after application. The inoculated leaf disks are incubated at 23° C./21° C.

[4] = tested on: Mycosphaerella graminicola (Septoria tritici); test: Mycosphaerella graminicola (Septoria tritici) / liquid culture (Septoria blotch); type: cell-based; details: Zymoseptoria tritici, compared to untreated control
Experimental: Example B15: Mycosphaerella graminicola (Septoria tritici)/Liquid Culture (Septoria Blotch) Conidia of the fungus from cryogenic storage are directly mixed into nutrient broth (PDB potato dextrose broth). After placing a (DMSO) solution of test compound into a microtiter plate (96-well format), the nutrient broth containing the fungal spores is added. The test plates are incubated at 24° C. and the inhibition of growth is determined photometrically 4 to 5 days after application.

[5] = tested on: Glomerella lagenarium (Colletotrichum lagenarium); test: Glomerella lagenarium (Colletotrichum lagenarium) / liquid culture (anthracnose); type: cell-based; details: Colletotrichum orbiculare, compared to untreated control
Experimental: Example B3: Glomerella lagenarium (Colletotrichum lagenarium)/Liquid Culture (Anthracnose) Conidia of the fungus from cryogenic storage are directly mixed into nutrient broth (PDB potato dextrose broth). After placing a (DMSO) solution of test compound into a microtiter plate (96-well format), the nutrient broth containing the fungal spores is added. The test plates are incubated at 24° C. and the inhibition of growth is measured photometrically 3 to 4 days after application.

[6] = tested on: Pyrenophora teres; test: Pyrenophora teres / barley / leaf disc preventative (net blotch); type: in vivo; details: foliar, compared to untreated control
Experimental: Example B12: Pyrenophora teres/Barley/Leaf Disc Preventative (Net Blotch) Barley leaf segments cv. Hasso are placed on agar in a multiwell plate (24-well format) and sprayed with the formulated test compound diluted in water. The leaf segments are inoculated with a spore suspension of the fungus 2 days after application. The inoculated leaf segments are incubated at 20° C. and 65% rh under a light regime of 12 h light/12 h darkness in a climate cabinet and the activity of a compound is assessed as disease control compared to untreated when an appropriate level of disease damage appears in untreated check leaf segments (5 to 7 days after application).

CCCCCOC(=O)N1C[C@H](c2cnn(C)c2C)c2ccccc2[C@@H]1C (racemic) [Compound P-28, pentyl rac-(1S,4S)-4-(1,5-dimethylpyrazol-4-yl)-1-methyl-3,4-dihydro-1H-isoquinoline-2-carboxylate]
≥ 80%: inhibition of growth at 20 ppm [1] | inhibition of growth at 20 ppm [2] | pest or weed control at 200 ppm [3] | inhibition of growth at 20 ppm [4] | inhibition of growth at 20 ppm [5]

Cc1c([C@H]2CN(C(=O)OCCC3CCCCC3)[C@@H](C)c3ccccc32)cnn1C (racemic) [Compound P-16, 2-cyclohexylethyl rac-(1S,4S)-4-(1,5-dimethylpyrazol-4-yl)-1-methyl-3,4-dihydro-1H-isoquinoline-2-carboxylate]
≥ 80%: inhibition of growth at 20 ppm [1] | inhibition of growth at 20 ppm [2] | inhibition of growth at 20 ppm [4] | inhibition of growth at 20 ppm [5]

CCCCCCC(=O)N1Cc2ccccc2C(c2cnn(C)c2C)C1 (stereo not drawn) [Compound P-4, 1-[4-(1,5-dimethylpyrazol-4-yl)-3,4-dihydro-1H-isoquinolin-2-yl]heptan-1-one]
≥ 80%: inhibition of growth at 20 ppm [1] | inhibition of growth at 20 ppm [2] | pest or weed control at 200 ppm [3] | inhibition of growth at 20 ppm [4] | inhibition of growth at 20 ppm [5]

Cc1c([C@H]2CN(C(=O)CCc3ccc(F)cc3F)[C@@H](C)c3ccccc32)cnn1C (racemic) [Compound P-45, 3-(2,4-difluorophenyl)-1-[rac-(1S,4S)-4-(1,5-dimethylpyrazol-4-yl)-1-methyl-3,4-dihydro-1H-isoquinolin-2-yl]propan-1-one]
≥ 80%: inhibition of growth at 20 ppm [1] | inhibition of growth at 20 ppm [2] | pest or weed control at 200 ppm [6] | pest or weed control at 200 ppm [3] | inhibition of growth at 20 ppm [4] | inhibition of growth at 20 ppm [5]

CCCCCCCC(=O)N1Cc2ccccc2C(c2cnn(C)c2C)C1 (stereo not drawn) [Compound P-10, 1-[4-(1,5-dimethylpyrazol-4-yl)-3,4-dihydro-1H-isoquinolin-2-yl]octan-1-one]
≥ 80%: inhibition of growth at 20 ppm [1] | inhibition of growth at 20 ppm [2] | inhibition of growth at 20 ppm [4] | inhibition of growth at 20 ppm [5]

CCCCCNC(=O)N1C[C@H](c2cnn(C)c2C)c2ccccc2[C@@H]1C (racemic) [Compound P-43, rac-(1S,4S)-4-(1,5-dimethylpyrazol-4-yl)-1-methyl-N-pentyl-3,4-dihydro-1H-isoquinoline-2-carboxamide]
≥ 80%: inhibition of growth at 20 ppm [1] | inhibition of growth at 20 ppm [2] | pest or weed control at 200 ppm [6] | inhibition of growth at 20 ppm [4]

Cc1c([C@H]2CN(C(=O)CCCCC3CC3)[C@@H](C)c3ccccc32)cnn1C [Compound P-47, 5-cyclopropyl-1-[(1S,4S)-4-(1,5-dimethylpyrazol-4-yl)-1-methyl-3,4-dihydro-1H-isoquinolin-2-yl]pentan-1-one]
≥ 80%: inhibition of growth at 20 ppm [1] | inhibition of growth at 20 ppm [2] | pest or weed control at 200 ppm [6] | pest or weed control at 200 ppm [3] | inhibition of growth at 20 ppm [4] | inhibition of growth at 20 ppm [5]

CCCCCNC(=O)N1Cc2ccccc2C(c2cnn(C)c2C)C1 (stereo not drawn) [Compound P-31, 4-(1,5-dimethylpyrazol-4-yl)-N-pentyl-3,4-dihydro-1H-isoquinoline-2-carboxamide]
≥ 80%: inhibition of growth at 20 ppm [2] | pest or weed control at 200 ppm [6] | pest or weed control at 200 ppm [3] | inhibition of growth at 20 ppm [4]

Cc1c(C2CN(C(=O)CCc3ccc(F)cc3)Cc3ccccc32)cnn1C (stereo not drawn) [Compound P-7, 1-[4-(1,5-dimethylpyrazol-4-yl)-3,4-dihydro-1H-isoquinolin-2-yl]-3-(4-fluorophenyl)propan-1-one]
≥ 80%: pest or weed control at 200 ppm [3] | inhibition of growth at 20 ppm [4]

Cc1c([C@H]2CN(C(=O)CCCCC(F)F)[C@@H](C)c3ccccc32)cnn1C (racemic) [Compound P-27, 6,6-difluoro-1-[rac-(1S,4S)-4-(1,5-dimethylpyrazol-4-yl)-1-methyl-3,4-dihydro-1H-isoquinolin-2-yl]hexan-1-one]
≥ 80%: inhibition of growth at 20 ppm [1] | inhibition of growth at 20 ppm [2] | pest or weed control at 200 ppm [6] | inhibition of growth at 20 ppm [4]

Cc1c(C2CN(C(=O)CCc3ccc(Cl)cc3)Cc3ccccc32)cnn1C (stereo not drawn) [Compound P-22, 3-(4-chlorophenyl)-1-[4-(1,5-dimethylpyrazol-4-yl)-3,4-dihydro-1H-isoquinolin-2-yl]propan-1-one]
≥ 80%: inhibition of growth at 20 ppm [2] | pest or weed control at 200 ppm [6] | pest or weed control at 200 ppm [3] | inhibition of growth at 20 ppm [4]

Cc1c(C2CN(C(=O)NCCC3CCCCC3)Cc3ccccc32)cnn1C (stereo not drawn) [Compound P-42, N-(2-cyclohexylethyl)-4-(1,5-dimethylpyrazol-4-yl)-3,4-dihydro-1H-isoquinoline-2-carboxamide]
≥ 80%: inhibition of growth at 20 ppm [1] | inhibition of growth at 20 ppm [2] | inhibition of growth at 20 ppm [4]

Cc1c(C2CN(C(=O)CCCCCC(F)(F)F)Cc3ccccc32)cnn1C (stereo not drawn) [Compound P-30, 1-[4-(1,5-dimethylpyrazol-4-yl)-3,4-dihydro-1H-isoquinolin-2-yl]-7,7,7-trifluoro-heptan-1-one]
≥ 80%: inhibition of growth at 20 ppm [1] | inhibition of growth at 20 ppm [2] | inhibition of growth at 20 ppm [4]

Cc1c(C2CN(C(=O)NCCCCCF)Cc3ccccc32)cnn1C (stereo not drawn) [Compound P-49, 4-(1,5-dimethylpyrazol-4-yl)-N-(5-fluoropentyl)-3,4-dihydro-1H-isoquinoline-2-carboxamide]
≥ 80%: pest or weed control at 200 ppm [6] | inhibition of growth at 20 ppm [4]

Cc1c(C2CN(C(=O)NCC3CCCCC3)Cc3ccccc32)cnn1C (stereo not drawn) [Compound P-36, N-(cyclohexylmethyl)-4-(1,5-dimethylpyrazol-4-yl)-3,4-dihydro-1H-isoquinoline-2-carboxamide]
≥ 80%: pest or weed control at 200 ppm [6] | inhibition of growth at 20 ppm [4]

Cc1c([C@H]2CN(C(=O)CCCCCC(F)(F)F)[C@@H](C)c3ccccc32)cnn1C (racemic) [Compound P-29, 7,7,7-trifluoro-1-[rac-(1S,4S)-4-(1,5-dimethylpyrazol-4-yl)-1-methyl-3,4-dihydro-1H-isoquinolin-2-yl]heptan-1-one]
≥ 80%: inhibition of growth at 20 ppm [1] | inhibition of growth at 20 ppm [2] | pest or weed control at 200 ppm [6] | pest or weed control at 200 ppm [3] | inhibition of growth at 20 ppm [4]

Cc1c(C2CN(C(=O)NCCCCC(F)F)Cc3ccccc32)cnn1C (stereo not drawn) [Compound P-50, N-(5,5-difluoropentyl)-4-(1,5-dimethylpyrazol-4-yl)-3,4-dihydro-1H-isoquinoline-2-carboxamide]
≥ 80%: pest or weed control at 200 ppm [6] | inhibition of growth at 20 ppm [4]

Cc1c(C2CN(C(=O)OCCC3CCCCC3)Cc3ccccc32)cnn1C (stereo not drawn) [Compound P-2, 2-cyclohexylethyl 4-(1,5-dimethylpyrazol-4-yl)-3,4-dihydro-1H-isoquinoline-2-carboxylate]
≥ 80%: inhibition of growth at 20 ppm [1] | inhibition of growth at 20 ppm [2] | inhibition of growth at 20 ppm [4] | inhibition of growth at 20 ppm [5]
